Data published in PMC10720709, “Design, synthesis, and evaluation of 4-(3-(3,5-dimethylisoxazol-4-yl)benzyl)phthalazin-1(2H)-one derivatives: potent BRD4 inhibitors with anti-breast cancer activity” (Frontiers in Pharmacology, 2023).

Assays:
BD1 domain of BRD4 = test system: BD1 domain of BRD4; design: method as in Hewings et al., 2013; conditions: ref Hewings et al., 2013; read-out: IC50 against the BD1 domain of BRD4; cited from earlier work
[1] = target: T1, recombinant BRD4 (BD1 + BD2) (Homo sapiens, UniProt O60885); test: BRD4 TR-FRET activity assay; format: binding;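 note: signal rises with BET ligand binding to the bromodomains, so inhibitors lower it, 120 min incubation at room temperature, 1% DMSO, wells lacking ligand as negative control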
T1 construct: employing a recombinant BRD4 (BD1 + BD2) and its corresponding ligand
Experimental: The BRD4 activity assay utilized TR-FRET technology, employing a recombinant BRD4 (BD1 + BD2) and its corresponding ligand. The TR-FRET signal generated in the assay is proportional to the ligand’s binding to the bromodomains. All reactions contained a final DMSO concentration of 1%. All binding reactions were conducted at room temperature. Each 20 µL reaction mixture, in assay buffer, comprised bromodomains, the BET Ligand, and the specified inhibitor amount. For the negative control, 5 µL of assay buffer replaced the BET ligand. After a 120-min incubation with the ligand, the TR-FRET signal was captured using a Tecan Infinite M1000 plate reader. IC50 values were determined through nonlinear regression with a normalized dose-response fit in Prism GraphPad software.

PARP1 = PARP1 (Homo sapiens, UniProt P09874); test: PARP1 enzymatic activity ELISA; format: biochemical; conditions: ELISA
Experimental: The inhibition of PARP1 enzymatic activity by the tested compounds was gauged using an ELISA in 96-well plates. Each well was pre-coated with histone (20 μg/mL) in 100 μL of PBS buffer and incubated overnight at 4 °C. […] This was followed by the addition of 5 μL of either the compound at varying concentrations or a solvent control. The reaction was initiated by adding 20 μL of PARP (50 ng/well) and incubating at 30°C for 1 h. Post-reaction, 50 µL of streptavidin-conjugated HRP was introduced, and the assay continued at 30°C for an additional 30 min. Finally, 100 μL of a solution containing H2O2 and luminol in 0.1 M citrate buffer (pH 5.4) was added, and the luminescent signal was recorded using a Molecular Devices SpectraMax M5 microplate reader.

MDA-MB-231 cells = test: MTT cell viability assay, MDA-MB-231; format: cell-based; conditions: Homo sapiens; MDA-MB-231, MTT, 72 h; read-out: Cytotoxicity IC50
Experimental: (§1) MDA-MB-468, MDA-MB-231, and MCF-7 cell lines were sourced from the National Collection of Authenticated Cell Culture, China. Cells were maintained in DMEM medium supplemented with 10% FBS and 1% penicillin/streptomycin, and incubated at 37°C in a humidified atmosphere containing 5% CO2.
(§2) The viability of cells was assessed using the MTT assay. Cells were seeded at a density of 3×10^3 cells per well in a 96-well plate and treated with varying concentrations (0.05, 0.2, 0.8, 3.2, 6.4, 12.8 µM) of the compounds for 72 h. Post-incubation, 100 µL of MTT solution (0.5 mg/mL) was added to each well and further incubated for 4 h. The resulting formazan crystals were dissolved in 150 µL DMSO, and the absorbance was measured at 570 nm using a microplate reader.

MDA-MB-468 cells = test: MTT cell viability assay, MDA-MB-468; format: cell-based; conditions: Homo sapiens; MDA-MB-468, MTT, 72 h; read-out: Cytotoxicity IC50
Experimental: as §1, §2

MCF-7 cells [2] = test: MTT cell viability assay, MCF-7; format: cell-based; conditions: Homo sapiens, MCF7; MCF-7, MTT, 72 h; read-out: Cytotoxicity IC50
Experimental: as §1, §2

MCF-7 cells [3] = test: Cell cycle analysis (PI, flow cytometry); format: cell-based; conditions: for proportion of cells in G1 phase: 48 h
Experimental: The cell cycle distribution was assessed using the DNA Content Quantitation Assay Kit (Solarbio, China). […] After treatment, cells were harvested, fixed in ice-cold 70% ethanol overnight at 4°C, and subsequently washed with PBS. Cells were then treated with 100 μL RNase at 37°C for 30 min and stained with 400 μL PI for 30 min at 4°C in the dark. The cell cycle distribution was analyzed using an Accuri C6 Plus flow cytometer (BD Bioscience, CA), and data interpretation was performed with FlowJo software.

[4] = test system: c-MYC expression in MCF-7 cells; test: Western blot of c-MYC; format: cell-based; conditions: MCF-7, 24 h
Experimental: (§3) Cells were then lysed using RIPA buffer supplemented with protease and phosphatase inhibitors. Protein concentrations were determined using the BCA Protein Assay Kit. Equal amounts of protein (20–30 µg) were separated by SDS-polyacrylamide gel electrophoresis and subsequently transferred to a polyvinylidene fluoride (PVDF) membrane. The membrane was blocked using 5% milk in PBS prior to incubation with primary antibodies. Primary antibodies against p-H2AX (Cell Signaling Technology™, US), c-MYC, and β-actin (Proteintech, US) were used. After overnight incubation at 4°C, membranes were washed and incubated with HRP-conjugated secondary antibodies for 1 h. Protein bands were visualized using ECL reagents.

γ-H2AX in MCF-7 cells = test: Western blot of γ-H2AX; format: cell-based; conditions: MCF-7, 24 h
Experimental: as §3

MCF-7 cells [5] = test: Clonogenic (colony formation) assay; format: cell-based; conditions: MCF-7, 0.3, 1, 3 μM, 8 days
Experimental: MCF-7 cells were seeded in 6-well plates at a density of 500 cells/well and allowed to grow for 8 days to facilitate colony formation. After incubation, cells were washed with PBS, fixed in methanol for 15 min, and stained with 1% crystal violet for an hour. Colonies were then imaged and counted.

MCF-7 cells [6] = test: Wound scratch cell migration assay; format: cell-based; conditions: MCF-7, wound scratch, 1 μM, 48 h
Experimental: MCF-7 cells were seeded in 6-well plates at a density of 5×10^5 cells/well and incubated overnight. A scratch was made in the cell monolayer using a 10 µL pipette tip. […] Images were captured at 0, 12, 24, and 48-h intervals.

MCF-7 cells [7] = test: Comet assay (DNA damage); format: cell-based; conditions: MCF-7, 24 h
Experimental: The comet assay was performed under alkaline conditions using the Comet Assay Kit (Beyotime, China) as per the manufacturer’s instructions. […] This mixture was spread onto microscope slides, which were then submerged in lysis solution for an hour. Electrophoresis was conducted in a horizontal apparatus at 25 V and 300 mA. Post-electrophoresis, slides were stained with PI for DNA visualization, and images were captured using a fluorescence inverted microscope.

Chain of PARP1 (P09874 whole entry): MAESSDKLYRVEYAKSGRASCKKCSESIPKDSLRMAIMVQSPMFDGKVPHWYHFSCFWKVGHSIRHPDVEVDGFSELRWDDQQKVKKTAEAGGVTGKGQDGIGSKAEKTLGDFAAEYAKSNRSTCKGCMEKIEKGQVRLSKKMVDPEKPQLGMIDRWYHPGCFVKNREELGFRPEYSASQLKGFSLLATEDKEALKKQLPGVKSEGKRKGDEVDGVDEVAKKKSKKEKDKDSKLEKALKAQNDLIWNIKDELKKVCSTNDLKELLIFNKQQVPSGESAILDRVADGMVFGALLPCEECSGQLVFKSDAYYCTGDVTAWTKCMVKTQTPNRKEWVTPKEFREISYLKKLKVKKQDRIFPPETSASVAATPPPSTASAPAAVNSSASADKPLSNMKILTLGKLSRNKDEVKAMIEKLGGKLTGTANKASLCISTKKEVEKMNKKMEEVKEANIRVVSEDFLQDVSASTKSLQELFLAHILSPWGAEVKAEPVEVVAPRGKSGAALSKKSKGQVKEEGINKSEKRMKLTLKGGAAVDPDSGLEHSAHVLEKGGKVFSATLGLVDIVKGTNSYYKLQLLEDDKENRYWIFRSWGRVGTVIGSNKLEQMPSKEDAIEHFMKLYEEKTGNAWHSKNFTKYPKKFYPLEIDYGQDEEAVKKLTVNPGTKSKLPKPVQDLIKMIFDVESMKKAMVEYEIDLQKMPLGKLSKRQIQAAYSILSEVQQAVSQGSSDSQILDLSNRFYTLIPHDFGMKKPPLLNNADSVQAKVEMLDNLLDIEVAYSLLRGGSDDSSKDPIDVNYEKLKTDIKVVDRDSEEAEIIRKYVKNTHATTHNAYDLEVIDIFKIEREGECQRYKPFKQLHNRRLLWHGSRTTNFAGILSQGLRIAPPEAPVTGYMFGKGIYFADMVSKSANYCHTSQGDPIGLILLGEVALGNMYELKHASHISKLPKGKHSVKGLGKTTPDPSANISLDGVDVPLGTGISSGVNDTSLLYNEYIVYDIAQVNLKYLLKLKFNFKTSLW

Row | SMILES | IC50 (BD1 domain of BRD4) [µM] | inhibition at 1 µM ([1]; 1 μmol/L, read-out: BRD4 inhibition rate) [%] | IC50 ([1]; TR-FRET, BRD4 (BD1 + BD2)) [µM] | IC50 (PARP1) [µM] | IC50 (MDA-MB-231 cells) [µM] | IC50 (MDA-MB-468 cells) [µM] | IC50 (MCF-7 cells [2]) [µM] | proportion of cells in G1 phase (MCF-7 cells [3]; MCF-7, 0.3 μM) [%] | proportion of cells in G1 phase (MCF-7 cells [3]; MCF-7, 1 μM) [%] | proportion of cells in G1 phase (MCF-7 cells [3]; MCF-7, 3 μM) [%] | effect on cell cycle (in words) (MCF-7 cells [3]; MCF-7, 48 h) | expression of c-MYC (Western blot) [4] | γ-H2AX level (Western blot) (γ-H2AX in MCF-7 cells) | colony formation (in words) (MCF-7 cells [5]) | inhibition of cell migration (in words) (MCF-7 cells [6]) | DNA damage (comet assay, in words) (MCF-7 cells [7])
1 | Cc1noc(C)c1-c1cc(O)cc(C(=O)c2ccccc2)c1 [Compound 7] | 0.544 | – | – | – | – | – | – | – | – | – | – | – | – | – | – | –
2 | Cc1noc(C)c1-c1cc(Cc2n[nH]c(=O)c3ccccc23)cc(NC(=O)c2ccccc2C(F)(F)F)c1 [DDT26] | – | 85 | 0.237 ± 0.093 | 4.29 ± 1.81 | 7.55 | 3.96 | 4.9 | 53.8 | 59.8 | 64.5 | dose-dependent G1 phase cell cycle arrest | downregulate the expression of c-MYC in MCF-7 cells in a concentration-dependent manner | induced the accumulation of γ-H2AX in MCF-7 cells in a concentration-dependent fashion | inhibited colony formation in MCF-7 cells in a dose-dependent manner | slightly less pronounced | induced DNA damage in MCF-7 cells in a dose-dependent manner
